Test results: PubChem BioAssay AID248 (DTP/NCI, 2004)
Where “and” joins values, the source holds several entries; their conditions need not be identical. Equal entries are not always repeated. Inconclusive results and toxic doses are left out.

System: L1210 leukemia ip in BDF1 mice, survival T/C
Test: NCI In Vivo Anticancer Drug Screen. Data for tumor model L1210 Leukemia (intraperitoneal) in B6D2F1 (BDF1) mice
Conditions: higher = longer survival
Outline: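 Mice bearing the transplanted tumor received compound or vehicle. Survival of the treated group was divided by that of the vehicle-treated control group to give the ratio.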

[1] = endpoint: mean survival time, dose: 100.0 mg/kg/injection, schedule: Q04DX003 (ip), vehicle: Klucel (hydroxypropylcellulose) (HPC)
[2] = endpoint: mean survival time, dose: 200.0 mg/kg/injection, schedule: Q04DX003 (ip), vehicle: Klucel (hydroxypropylcellulose) (HPC)
[3] = endpoint: mean survival time, dose: 400.0 mg/kg/injection, schedule: Q04DX003 (ip), vehicle: Klucel (hydroxypropylcellulose) (HPC)
[4] = endpoint: mean survival time, dose: 100.0 mg/kg/injection, schedule: Q01DX001 (ip), vehicle: saline
[5] = endpoint: mean survival time, dose: 200.0 mg/kg/injection, schedule: Q01DX001 (ip), vehicle: saline
[6] = endpoint: mean survival time, dose: 400.0 mg/kg/injection, schedule: Q01DX001 (ip), vehicle: saline
[7] = endpoint: mean survival time, dose: 100.0 mg/kg/injection, schedule: Q04DX003 (ip), vehicle: saline with Tween-80
[8] = endpoint: mean survival time, dose: 200.0 mg/kg/injection, schedule: Q04DX003 (ip), vehicle: saline with Tween-80
[9] = endpoint: mean survival time, dose: 400.0 mg/kg/injection, schedule: Q04DX003 (ip), vehicle: saline with Tween-80

Compound: CCCCN(C)/N=N/c1nc[nH]c1C(N)=O
- T/C (endpoint: mean survival time, dose: 4.0 mg/kg/injection, schedule: Q01DX009 (ip), vehicle: other): 111 % of control
- T/C (endpoint: mean survival time, dose: 7.0 mg/kg/injection, schedule: Q01DX009 (ip), vehicle: other): 111 % of control
- T/C (endpoint: mean survival time, dose: 12.25 mg/kg/injection, schedule: Q01DX009 (ip), vehicle: saline with Tween-80): 117 % of control
- T/C (endpoint: mean survival time, dose: 17.6 mg/kg/injection, schedule: Q01DX009 (ip), vehicle: carboxymethylcellulose (CMC)): 109 % of control
- T/C (endpoint: mean survival time, dose: 20.0 mg/kg/injection, schedule: Q01DX Z (ip), vehicle: carboxymethylcellulose (CMC)): 124 % of control
- T/C (endpoint: mean survival time, dose: 26.0 mg/kg/injection, schedule: Q01DX009 (ip), vehicle: carboxymethylcellulose (CMC)): 120 % of control
- T/C (endpoint: mean survival time, dose: 36.0 mg/kg/injection, schedule: Q01DX009 (ip), vehicle: other): 168 % of control
- T/C (endpoint: mean survival time, dose: 36.7 mg/kg/injection, schedule: Q04DX003 (ip), vehicle: saline with Tween-80): 117 % of control
- T/C (endpoint: mean survival time, dose: 40.0 mg/kg/injection, schedule: Q01DX009 (ip), vehicle: carboxymethylcellulose (CMC)): 124 % of control
- T/C (endpoint: mean survival time, dose: 40.0 mg/kg/injection, schedule: Q01DX Z (ip), vehicle: carboxymethylcellulose (CMC)): 164 % of control
- T/C (endpoint: mean survival time, dose: 49.0 mg/kg/injection, schedule: Q01DX009 (ip), vehicle: saline with Tween-80): 153 % of control
- T/C (endpoint: mean survival time, dose: 53.0 mg/kg/injection, schedule: Q01DX001 (ip), vehicle: saline with Tween-80): 107 % of control
- T/C (endpoint: mean survival time, dose: 60.0 mg/kg/injection, schedule: Q01DX009 (ip), vehicle: other): 154 % of control
- T/C (endpoint: mean survival time, dose: 73.5 mg/kg/injection, schedule: Q04DX003 (ip), vehicle: saline with Tween-80): 122 % of control
- T/C (endpoint: mean survival time, dose: 80.0 mg/kg/injection, schedule: Q01DX Z (ip), vehicle: carboxymethylcellulose (CMC)): 158 % of control
- T/C (endpoint: mean survival time, dose: 88.0 mg/kg/injection, schedule: Q01DX001 (ip), vehicle: carboxymethylcellulose (CMC)): 103 % of control
- T/C (endpoint: mean survival time, dose: 88.0 mg/kg/injection, schedule: Q01DX001 (ip), vehicle: other): 121 % of control
- T/C (endpoint: mean survival time, dose: 100.0 mg/kg/injection, schedule: Q01DX001 (ip), vehicle: other): 119 % of control
- T/C (endpoint: mean survival time, dose: 100.0 mg/kg/injection, schedule: Q01DX009 (ip), vehicle: other): 90 % of control
- T/C (endpoint: mean survival time, dose: 106.0 mg/kg/injection, schedule: Q01DX001 (ip), vehicle: saline with Tween-80): 119 % of control
- T/C (endpoint: mean survival time, dose: 120.0 mg/kg/injection, schedule: Q01DX Z (ip), vehicle: carboxymethylcellulose (CMC)): 101 % of control
- T/C (endpoint: mean survival time, dose: 133.0 mg/kg/injection, schedule: Q01DX001 (ip), vehicle: carboxymethylcellulose (CMC)): 103 % of control
- T/C (endpoint: mean survival time, dose: 147.0 mg/kg/injection, schedule: Q04DX003 (ip), vehicle: saline with Tween-80): 153 % of control
- T/C (endpoint: mean survival time, dose: 160.0 mg/kg/injection, schedule: Q01DX009 (ip), vehicle: carboxymethylcellulose (CMC)): 98 % of control
- T/C (endpoint: mean survival time, dose: 200.0 mg/kg/injection, schedule: Q01DX001 (ip), vehicle: carboxymethylcellulose (CMC)): 106 % of control
- T/C (endpoint: mean survival time, dose: 400.0 mg/kg/injection, schedule: Q01DX001 (ip), vehicle: other): 122 % of control
- T/C (endpoint: median survival time, dose: 10.0 mg/kg/injection, schedule: Q01DX009 (ip), vehicle: steriod suspending solution): 116 % of control
- T/C (endpoint: median survival time, dose: 20.0 mg/kg/injection, schedule: Q01DX009 (ip), vehicle: steriod suspending solution): 122 % of control
- T/C (endpoint: median survival time, dose: 40.0 mg/kg/injection, schedule: Q01DX009 (ip), vehicle: steriod suspending solution): 150 % of control and 155 % of control
- T/C (endpoint: median survival time, dose: 80.0 mg/kg/injection, schedule: Q01DX009 (ip), vehicle: steriod suspending solution): 155 % of control and 166 % of control
- T/C (endpoint: median survival time, dose: 160.0 mg/kg/injection, schedule: Q01DX009 (ip), vehicle: steriod suspending solution): 100 % of control

Compound: COc1ccc2c(c1)C(=O)CCN2
- T/C (endpoint: mean survival time, dose: 100.0 mg/kg/injection, schedule: Q01DX009 (ip), vehicle: Klucel (hydroxypropylcellulose) (HPC)): 100 % of control
- T/C [1]: 102 % of control
- T/C (endpoint: mean survival time, dose: 200.0 mg/kg/injection, schedule: Q01DX009 (ip), vehicle: Klucel (hydroxypropylcellulose) (HPC)): 95 % of control
- T/C [2]: 104 % of control
- T/C [3]: 93 % of control

Compound: COc1ccc(NS(=O)c2ccc(Oc3ccccc3)cc2)cc1 (stereo unspecified)
- T/C (endpoint: mean survival time, dose: 25.6 mg/kg/injection, schedule: Q04DX002 (ip), vehicle: saline with Tween-80): 106 % of control
- T/C (endpoint: mean survival time, dose: 64.0 mg/kg/injection, schedule: Q04DX002 (ip), vehicle: saline with Tween-80): 112 % of control
- T/C (endpoint: mean survival time, dose: 160.0 mg/kg/injection, schedule: Q04DX002 (ip), vehicle: saline with Tween-80): 101 % of control
- T/C (endpoint: mean survival time, dose: 400.0 mg/kg/injection, schedule: Q04DX002 (ip), vehicle: saline with Tween-80): 93 % of control

Compound: CC1OC(n2ncc(=O)[nH]c2=O)C2OC(C)(C)OC2C1=O (stereo unspecified)
- T/C (endpoint: mean survival time, dose: 12.5 mg/kg/injection, schedule: Q01DX005 (ip), vehicle: distilled water + Tween-80): 108 % of control
- T/C (endpoint: mean survival time, dose: 25.0 mg/kg/injection, schedule: Q01DX005 (ip), vehicle: distilled water + Tween-80): 95 % of control
- T/C (endpoint: mean survival time, dose: 50.0 mg/kg/injection, schedule: Q01DX005 (ip), vehicle: distilled water + Tween-80): 92 % of control
- T/C (endpoint: mean survival time, dose: 100.0 mg/kg/injection, schedule: Q01DX005 (ip), vehicle: distilled water + Tween-80): 95 % of control
- T/C (endpoint: mean survival time, dose: 200.0 mg/kg/injection, schedule: Q01DX005 (ip), vehicle: distilled water + Tween-80): 97 % of control

Compound: CCO/C=N/N(C)c1n[n+]([O-])ccc1C
- T/C (endpoint: mean survival time, dose: 100.0 mg/kg/injection, schedule: Q04DX002 (ip), vehicle: saline): 110 % of control
- T/C (endpoint: mean survival time, dose: 200.0 mg/kg/injection, schedule: Q04DX002 (ip), vehicle: saline): 104 % of control
- T/C (endpoint: mean survival time, dose: 400.0 mg/kg/injection, schedule: Q04DX002 (ip), vehicle: saline): 101 % of control

Compound: CC(=O)Nc1ccc(/C=N\Nc2ccccn2)cc1
- T/C [4]: 89 % of control
- T/C [5]: 100 % of control
- T/C [6]: 93 % of control

Compound: O=C(O)/C(S)=C\c1ccc(Cl)cc1
- T/C [4]: 97 % of control
- T/C [5]: 94 % of control

Compound: O=C(O)c1cccc2cccc(-c3c4ccc(=O)c(O)c-4oc4c(O)c(O)ccc34)c12
- T/C [7]: 91 % of control
- T/C [8]: 92 % of control
- T/C [9]: 89 % of control

Compound: CCCNC(C)C(=O)c1ccccc1 (stereo unspecified)
- T/C (endpoint: mean survival time, dose: 12.5 mg/kg/injection, schedule: Q01DX009 (ip), vehicle: saline): 93 % of control
- T/C (endpoint: mean survival time, dose: 25.0 mg/kg/injection, schedule: Q01DX009 (ip), vehicle: saline): 97 % of control
- T/C (endpoint: mean survival time, dose: 50.0 mg/kg/injection, schedule: Q01DX009 (ip), vehicle: saline): 108 % of control
- T/C (endpoint: mean survival time, dose: 100.0 mg/kg/injection, schedule: Q01DX009 (ip), vehicle: saline): 86 % of control

Compound: O=C(Nc1ccc(NC2=NCCN2)cc1)c1ccc(C(=O)Nc2ccc(NC3=NCCN3)cc2)c([N+](=O)[O-])c1
- T/C (endpoint: mean survival time, dose: 1.88 mg/kg/injection, schedule: Q01DX Z (ip), vehicle: saline): 92 % of control
- T/C (endpoint: mean survival time, dose: 3.75 mg/kg/injection, schedule: Q01DX Z (ip), vehicle: saline): 97 % of control
- T/C (endpoint: mean survival time, dose: 7.5 mg/kg/injection, schedule: Q01DX Z (ip), vehicle: saline): 106 % of control
- T/C (endpoint: mean survival time, dose: 7.5 mg/kg/injection, schedule: Q01DX Z (oral), vehicle: saline): 94 % of control
- T/C (endpoint: mean survival time, dose: 15.0 mg/kg/injection, schedule: Q01DX Z (ip), vehicle: saline): 110 % of control and 89 % of control
- T/C (endpoint: mean survival time, dose: 15.0 mg/kg/injection, schedule: Q01DX Z (oral), vehicle: saline): 95 % of control
- T/C (endpoint: mean survival time, dose: 30.0 mg/kg/injection, schedule: Q01DX Z (oral), vehicle: saline): 91 % of control
- T/C (endpoint: mean survival time, dose: 60.0 mg/kg/injection, schedule: Q01DX Z (oral), vehicle: saline): 100 % of control

Compound: CC(=O)OC1CCC2(C)C(=CC=C3C2CCC2(C)C3CCC2C(C)/C=C/C(C)C(C)C)C1 (stereo unspecified)
- T/C (endpoint: mean survival time, dose: 100.0 mg/kg/injection, schedule: Q04DX002 (sc), vehicle: saline with Tween-80): 97 % of control
- T/C [1]: 93 % of control
- T/C (endpoint: mean survival time, dose: 200.0 mg/kg/injection, schedule: Q04DX002 (sc), vehicle: saline with Tween-80): 97 % of control
- T/C [2]: 96 % of control
- T/C (endpoint: mean survival time, dose: 400.0 mg/kg/injection, schedule: Q04DX002 (sc), vehicle: saline with Tween-80): 97 % of control
- T/C [3]: 93 % of control

Compound: Clc1ccc(OCOc2ccc(Cl)cc2)cc1
- T/C [1]: 106 % of control
- T/C [2]: 98 % of control
- T/C [3]: 92 % of control

Compound: CC(C)(C)OC(=O)N1C2c3ccccc3C1C1C2N=NN1c1ccccc1 (stereo unspecified)
- T/C [4]: 110 % of control
- T/C [5]: 95 % of control
- T/C [6]: 91 % of control

Compound: NCC(=O)c1ccc(OC(=O)c2ccccc2)cc1
- T/C (endpoint: mean survival time, dose: 100.0 mg/kg/injection, schedule: Q01DX009 (ip), vehicle: saline with Tween-80): 92 % of control
- T/C [7]: 95 % of control
- T/C (endpoint: mean survival time, dose: 200.0 mg/kg/injection, schedule: Q01DX009 (ip), vehicle: saline with Tween-80): 94 % of control
- T/C [8]: 95 % of control
- T/C (endpoint: mean survival time, dose: 400.0 mg/kg/injection, schedule: Q01DX009 (ip), vehicle: saline with Tween-80): 103 % of control
- T/C [9]: 96 % of control
